Experimental data from patent publication US7622446B2, “Polypeptides, derivatives and uses thereof” (The Open University, priority 2001, dated 2009).
No end group written: not given here.

Legend:
Type in all cases: in vivo, chick
chicks [1] = experiment: APP-antisense induced amnesia, passive avoidance task, strong training; conditions: for effect on APP-antisense induced amnesia (percent avoidance): FIG. 5
Experimental: Commercially obtained Ross Chunky eggs were incubated and hatched in brooders and held until 16±6 hours old. Chicks were placed in pairs in small aluminium pens. Following an equilibration period of an hour, the chicks were pretrained and trained essentially as described by Lossner and Rose (J. Neurochem. 41, 1357-1363 (1983), the contents of which are incorporated herein by reference). Pretraining involved three 10 s presentations of a small (2 mm diameter) white bead, at approximately 5 minute intervals. […] Two training techniques were used: “strong” and “weak” training. In both, 5 to 10 minutes after the last pre-training trial, chicks were trained by a 10 s presentation of a 4 mm diameter chrome bead, which had been dipped in the bitter-tasting methylanthranilate. Control chicks pecked at a water-coated or dry bead. In the “strong” version of the task, 100% methylanthranilate was used. In the “weak” version, 10% methylanthranilate was used. Chicks spontaneously pecked at the training or control beads within 20 s. Chicks that peck at the bitter bead evinced a disgust reaction and would not normally peck at a similar, but dry bead for some hours subsequently. At various times following training chicks were tested, by offering them a dry 4 mm diameter chrome bead, followed 10 minutes later by a small (2 mm diameter) white bead, each for 20 to 30 s. Animals were tested by an experimenter blind as to which treatment each chick had received. Chicks are considered to remember the task if they avoid the chrome bead at test but peck at the white bead (discriminate), and to have forgotten it if they peck at both beads. Recall is calculated as a percent avoidance score (percentage of chicks which avoid the chrome bead) and as a discrimination score (percentage of chicks which avoid the chrome but peck at the white bead). […]
Bilateral intracranial injections ([…]) of either saline, or solutions in saline of different peptides (0.5 to 5 μg/hemisphere) homologous to different regions of the external domain of human APP were injected intracerebrally into a specific brain region, known to be required for memory formation (the intermediate hyperstriatum ventrale) at different time-points pre- or post-training using a […] fitted with a plastic sleeve to allow a penetration of 3 mm. […] Correct placement was ensured by using a specially designed headholder described by Davis et al (Physiol. Behav. 22, 177-184 (1979), the contents of which are incorporated herein by reference) and was routinely visually monitored postmortem. […]

chicks [2] = experiment: Memory enhancement on weak training (10% methylanthranilate), passive avoidance task; conditions: for effect of differing doses on weak training (percent avoidance): 30 mins before training, RER 0.2, 1.0, 2.0 μg/hemisphere, Ac-RER 4.0, 6.0 μg/hemisphere
Experimental: (§1) Commercially obtained Ross Chunky eggs were incubated and hatched in brooders and held until 16±6 hours old. Chicks were placed in pairs in small aluminium pens. Following an equilibration period of an hour, the chicks were pretrained and trained essentially as described by Lossner and Rose (J. Neurochem. 41, 1357-1363 (1983), the contents of which are incorporated herein by reference). Pretraining involved three 10 s presentations of a small (2 mm diameter) white bead, at approximately 5 minute intervals. […] Two training techniques were used: “strong” and “weak” training. In both, 5 to 10 minutes after the last pre-training trial, chicks were trained by a 10 s presentation of a 4 mm diameter chrome bead, which had been dipped in the bitter-tasting methylanthranilate. Control chicks pecked at a water-coated or dry bead. In the “strong” version of the task, 100% methylanthranilate was used. In the “weak” version, 10% methylanthranilate was used. Chicks spontaneously pecked at the training or control beads within 20 s. Chicks that peck at the bitter bead evinced a disgust reaction and would not normally peck at a similar, but dry bead for some hours subsequently. At various times following training chicks were tested, by offering them a dry 4 mm diameter chrome bead, followed 10 minutes later by a small (2 mm diameter) white bead, each for 20 to 30 s. Animals were tested by an experimenter blind as to which treatment each chick had received. Chicks are considered to remember the task if they avoid the chrome bead at test but peck at the white bead (discriminate), and to have forgotten it if they peck at both beads. Recall is calculated as a percent avoidance score (percentage of chicks which avoid the chrome bead) and as a discrimination score (percentage of chicks which avoid the chrome but peck at the white bead). […] Each chick was trained and tested only once and differences between groups tested for statistical significance by g-test described by Sokal and Rohlf (Biometry: the Principles and Practice of Statistics in Biological Research (2nd edition), W H Freeman, New York (1981)), the contents of which are incorporated herein by reference. The validity of this particular training task used to assess memory formation is extensively discussed by Andrew (Neural and Behavioural Plasticity: the Use of the Domestic Chick as a Model, Oxford University Press, Oxford, UK (1991), the contents of which are incorporated herein by reference.
(§2) Thus the learning experience is not committed to long-term memory. Agents that are memory enhancers can thus be tested. A memory enhancing agent, administered to a chick trained on the weak learning task, produces an increase in retention—increased avoidance of the chrome bead—at 24 hours. That is, such memory enhancers help convert weak to strong learning by enabling the transition from shorter to longer-term memory.
Bilateral intracranial injections ([…]) of either saline, or solutions in saline of different peptides (0.5 to 5 μg/hemisphere) homologous to different regions of the external domain of human APP were injected intracerebrally into a specific brain region, known to be required for memory formation (the intermediate hyperstriatum ventrale) at different time-points pre- or post-training using a […] fitted with a plastic sleeve to allow a penetration of 3 mm. After completion of the injection, the needle was kept in place for 5 s. Correct placement was ensured by using a specially designed headholder described by Davis et al (Physiol. Behav. 22, 177-184 (1979), the contents of which are incorporated herein by reference) and was routinely visually monitored postmortem. Peptides or other substances were administered at various times either before or after the training protocol. Chicks were tested at different time points post-training as described above. […]

chicks [3] = experiment: β-amyloid 12-28 induced amnesia, passive avoidance task, strong training
Experimental: as §1, §2
Bilateral intracranial injections ([…]) of either saline, or solutions in saline of different peptides (0.5 to 5 μg/hemisphere) homologous to different regions of the external domain of human APP were injected intracerebrally into a specific brain region, known to be required for memory formation (the intermediate hyperstriatum ventrale) at different time-points pre- or post-training using a […] fitted with a plastic sleeve to allow a penetration of 3 mm. After completion of the injection, the needle was kept in place for 5 s. Correct placement was ensured by using a specially designed headholder described by Davis et al (Physiol. Behav. 22, 177-184 (1979), the contents of which are incorporated herein by reference) and was routinely visually monitored postmortem. Peptides or other substances were administered at various times either before or after the training protocol. Chicks were tested at different time points post-training as described above.

chicks [4] = experiment: anti-APP (mb22C11) induced amnesia, passive avoidance task; conditions: FIG. 4; mb22C11 30 minutes pretraining, peptide 5 minutes pretraining; memory tested 24 hours posttraining
Experimental: Commercially obtained Ross Chunky eggs were incubated and hatched in brooders and held until 16±6 hours old. Chicks were placed in pairs in small aluminium pens. Following an equilibration period of an hour, the chicks were pretrained and trained essentially as described by Lossner and Rose (J. Neurochem. 41, 1357-1363 (1983), the contents of which are incorporated herein by reference). Pretraining involved three 10 s presentations of a small (2 mm diameter) white bead, at approximately 5 minute intervals. […] Two training techniques were used: “strong” and “weak” training. In both, 5 to 10 minutes after the last pre-training trial, chicks were trained by a 10 s presentation of a 4 mm diameter chrome bead, which had been dipped in the bitter-tasting methylanthranilate. Control chicks pecked at a water-coated or dry bead. In the “strong” version of the task, 100% methylanthranilate was used. In the “weak” version, 10% methylanthranilate was used. Chicks spontaneously pecked at the training or control beads within 20 s. Chicks that peck at the bitter bead evinced a disgust reaction and would not normally peck at a similar, but dry bead for some hours subsequently. […] Recall is calculated as a percent avoidance score (percentage of chicks which avoid the chrome bead) and as a discrimination score (percentage of chicks which avoid the chrome but peck at the white bead). […]

[5] = AS oligodeoxynucleotide 12 hours pretraining, peptide 30 minutes pretraining, strong learning task
[6] = FIGS. 7-9, peptide 30 minutes pretraining, memory tested 24 hours posttraining
[7] = FIG. 10, 2 μg/hemisphere 20 mins prior to training after β-amyloid 12-28 (2 μg/hemisphere) 30 mins prior to training, measured 20 mins after administration

Arg-Ser-Ala-Glu-Arg (RSAER) [reference compound]
effect on APP-antisense induced amnesia (percent avoidance) (chicks [1]; [5]): absent

AKERLEAKHRERMSQVM [APP 319-335]
effect on APP-antisense induced amnesia (percent avoidance: total avoidance and discrimination) (chicks [1]; FIG. 6, AS oligodeoxynucleotide 12 hours pretraining, peptide 30 minutes pretraining, tested 30 minutes posttraining): can prevent antisense induced memory loss
effect on weak training (percent avoidance) (chicks [2]; [6]): enhance memory at 24 hours

CC(=O)NC(CCCNC(=N)N)C(=O)NC(CCC(=O)O)C(=O)OC(CCCNC(=N)N)C(=O)O (centres unmarked) [Ac-RER]
effect on β-amyloid 12-28 induced amnesia (percent avoidance) (chicks [3]; [7]): less than that of RER
effect on β-amyloid 12-28 induced amnesia (percent avoidance) (chicks [3]; FIG. 10, 2 μg/hemisphere 20 mins prior to training after β-amyloid 12-28 (2 μg/hemisphere) 30 mins prior to training, measured 20 mins after administration, listed as AC-RER): have the effect of restoring memory
stability after administration (indicated by FIG. 10 results) (chicks [3]; FIG. 10, inferred from memory-restorative effect compared with RER): more stable after administration
effect on β-amyloid 12-28 induced amnesia (percent avoidance) (chicks [3]; FIG. 13, 4 μg/hemisphere 60, 20 or 30 mins prior to training (before, after or together with β-amyloid 12-28 2 μg/hemisphere)): has the effect of restoring memory
effect on weak training (percent avoidance) (chicks [2]; FIG. 11, 2 μg/hemisphere 30 mins before training): has the effect of improving the memory of weakly trained chicks
effect on weak training (percent avoidance) (chicks [2]; FIG. 11, 2 μg/hemisphere 60 mins before training): still significant, although less than 30 minutes after administration
effect of differing doses on weak training (percent avoidance) (chicks [2]; FIG. 12): have the effect of improving the memory of weakly-trained chicks
dose required to obtain a comparable effect on weak training (chicks [2]; FIG. 12, Ac-RER compared with RER): higher doses of Ac-RER than of RER
stability after administration (indicated by FIG. 12 results) (chicks [2]; FIG. 12, inferred from the doses required): more stable after administration than RER

AS oligodeoxynucleotide: 16-mer end-protected phosphodiester oligodeoxynucleotide 5′-CCC GAG GAC TGA GCC A-3′ (SEQ ID No: 21) against APP mRNA, antisense form (antisense CCCGAGGACTGAGCCA; end-protected phosphodiester DNA, nucleotides 2 and 13 modified, nature not given here) [reference compound]
effect of oligodeoxynucleotide on memory (percent avoidance) (chicks [1]; FIG. 5a, 0.6 to 1.0 μg in 2 μl, 12 hours pretraining, strong learning task): had a significant effect of memory loss

Arg-Glu-Arg-Met-Ser (RERMS)
effect on β-amyloid 12-28 induced amnesia (percent avoidance) (chicks [3]; FIG. 3, β-amyloid 12-28 30 minutes pretraining, peptide 20 minutes pretraining, memory tested 24 hours posttraining): memory retention is restored
effect on APP-antisense induced amnesia (percent avoidance) (chicks [1]; [5]): avoided to a substantial extent
effect on anti-APP induced amnesia (percent avoidance) (chicks [4]): will prevent antibody induced memory loss
effect on weak training (percent avoidance) (chicks [2]; [6]): enhance memory at 24 hours

Arg-Glu-Arg (RER)
effect on β-amyloid 12-28 induced amnesia (percent avoidance) (chicks [3]; [7]): have the effect of restoring memory
effect of differing doses on weak training (percent avoidance) (chicks [2]; FIG. 12): have the effect of improving the memory of weakly-trained chicks
effect on weak training (percent avoidance) (chicks [2]; [6]): enhances memory at 24 hours
